TGI and GI50 data for 28 compounds are collected here from PubChem BioAssay (NCI).

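Step 1: Grow cells in 96-well plates. Step 2: Expose to compound for 48 hours at 5 concentrations. Step 3: Interpolate endpoints linearly; if unreached, use highest concentration. Abbreviation: GI50, concentration required for 50% inhibition of growth. TGI marks complete inhibition of growth.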

What all share (assay): inhibition of tumour cell growth, NCI panel, 48 h
Assay [1] has as its system DLD-1 colon.
In assay [2] the test system is DMS 114 small cell lung.
The subject of assay [3] is DMS 273 small cell lung.
Assay [4] relates to KM20L2 colon.
Assay [5] has as its system SNB-78 CNS.
Assay [6] has as its system XF 498 CNS.
The test system of assay [7] is HOP-18 NSCLC.
The subject of assay [8] is RXF-631 renal.
The subject of assay [9] is MDA-N.

As for `COc1ccc2nc3cc(Cl)ccc3c(SCC(=O)Nc3ccccc3-c3ccccc3NC(=O)CSc3c4ccc(Cl)cc4nc4ccc(OC)cc34)c2c1`, the TGI in assay [1], in [2], in assay [3], in assay [4], in assay [5] and in [6] was > 100 µM each time. Besides, the TGI in assay [7] was > 100 µM.
With `CC1(C)CC2CC(CC(C)(C)C2=O)C1=O`, the TGI in assay [8], in assay [1], in assay [2], in assay [3], in assay [4] and in assay [5] was > 100 µM in each case. Also, the TGI in [6] and in assay [7] was > 100 µM in each case.
Take `COc1cccc(NC(=O)CC(=O)N2N=C(N3c4ccccc4Sc4ccccc43)CC2c2ccccc2)c1` (stereo unspecified): the TGI was > 100 µM in assay [1]; > 100 µM in [2]; > 100 µM in assay [4]; > 100 µM in assay [5]; > 100 µM in assay [6]; 62.2 µM in assay [7].
As for `O=[N+]([O-])c1ccc(N2CCC(CCCC3CCN(c4ccc([N+](=O)[O-])cc4[N+](=O)[O-])CC3)CC2)c([N+](=O)[O-])c1`, the TGI in assay [9] was 30.1 µM.
On to `O=C(N/C(=C\c1ccc(/C=C(\NC(=O)c2ccccc2)c2nc3ccccc3[nH]2)cc1)c1nc2ccccc2[nH]1)c1ccccc1`, for which the TGI in [1], in assay [2], in assay [3], in assay [4], in [5] and in assay [6] was > 100 µM each time. Besides, the TGI in assay [7] was > 100 µM.
On to `COc1cc2c(cc1OC)[C@@H](Nc1ccc(F)cc1)C1COC(=O)[C@@H]1C2c1cc(OC)c(O)c(OC)c1` (stereo partly specified), for which the TGI is > 82.7 µM in [8]; 40.5 µM in [1]; 10.4 µM in [2]; 8.41 µM in assay [3]; > 54.2 µM in [4]; 97.5 µM in [5]. The TGI in [6] was > 24.7 µM; in assay [7] it was > 100 µM.
Regarding `CCc1cccc(C)c1NC(=O)C1=C(C)NC(C)=C(C(=O)Nc2c(C)cccc2CC)C1c1ccc2c(c1)OCO2`, the TGI in assay [8] was 54 µM; in assay [1], 47.5 µM; in [2] it was 38.7 µM; in [4] it was 62.8 µM; in [5] it was > 100 µM; in [6] it was 31 µM.
On to `COc1cccc(-c2cc3c4c(nc5ccccc53)C(=O)c3cccnc3-c4n2)c1`, for which, in assay [9], the GI50 is 1.74 µM and the TGI was 4.01 µM.
In the case of `CCCN(CCC)C(=O)C(=O)c1c(N)[nH]n(-c2ccccc2)c1=O`, the TGI in assay [8], in assay [1], in assay [2], in assay [3], in assay [4] and in assay [5] was > 100 µM in each case. Besides, the TGI in assay [6] and in assay [7] was > 100 µM throughout.
As to `COc1ccc(COC2CC(OC)OC(C)C2OC(=O)c2ccccc2)cc1` (stereo unspecified), the TGI in assay [8] is > 100 µM; in assay [1], > 91.8 µM; in assay [2], 81.5 µM; in assay [3], > 100 µM; in assay [4], 32.9 µM; in assay [5], > 100 µM. The TGI is 49.4 µM in [6] and > 100 µM in assay [7].
`CNC(=O)OCc1c2ccncc2c(C)c2c1[nH]c1ccc(OC)cc12`: the TGI in assay [8] is > 100 µM; in assay [2], 1.32 µM; in [3], > 100 µM; in assay [4] it was 0.799 µM; in [5], 0.681 µM; in assay [6], > 100 µM. Further, the TGI in [7] was found to be 0.738 µM.
For `COc1cccc(NC(=O)CC(=O)N2N=C(n3ccc4ccccc43)CC2c2ccccc2)c1` (stereo unspecified), the TGI in assay [1], in assay [2], in [3], in [4], in assay [5] and in assay [7] was > 100 µM throughout.
On to `O=c1c(O)c(-c2ccc(O)c(O)c2)oc2cc(O)cc(O)c12`, for which the TGI in assay [8], in assay [1], in [2], in assay [3], in assay [4] and in assay [5] was > 100 µM in each case. The TGI in [6] and in [7] was > 100 µM throughout.
With `CCOc1ccc(NC(=O)C(=O)C(C(=O)c2ccc3ccccc3c2)C2OC(=O)c3ccccc32)cc1` (stereo unspecified), the TGI in assay [1] is 30.1 µM; in [2], 89.7 µM; in assay [3], 47 µM; in assay [4], > 100 µM; in assay [5] it was 64.9 µM; in [6], 60.6 µM. This compound also returned a TGI in [7] of 78.1 µM.
In the case of `C[C@]12CCC(=O)CC1CCCC2=O` (stereo partly specified), the TGI in assay [8], in assay [1], in assay [2], in assay [3], in [5] and in [6] was > 100 µM in each case.
Consider `Oc1c(Cl)c(Cl)c(O)c2c1CCCC2`, for which the TGI in [9] is 31.1 µM.
Consider `CC(=O)[CH-]C(=O)c1ccccc1.CC(=O)[CH-]C(=O)c1ccccc1.CC(=O)[CH-]C(=O)c1ccccc1.[In+3]`, for which the GI50 in assay [1] was 24.4 µM; in assay [4], 39.4 µM; in assay [7], 43.5 µM. Besides, the TGI in assay [1] is > 100 µM; in assay [4], > 100 µM; in assay [7] it was 77.1 µM.
Consider `C[CH2][Sn]([CH2]C)([O]C(=O)c1ccccc1F)[O][Sn]([CH2]C)([CH2]C)[O]C(=O)c1ccccc1F`, for which the GI50 in assay [1] is 18.4 µM; in assay [2], 15.8 µM; in [3] it was > 62.6 µM; in assay [4], > 51.2 µM; in assay [5], 18.7 µM; in assay [6], 16.1 µM. Moreover, the GI50 in assay [7] was 22.7 µM. In addition, the TGI is 54.7 µM in assay [1]; 30 µM in assay [2]; > 100 µM in [3]; > 77.9 µM in [4]; 46.7 µM in assay [5]; 29.9 µM in [6]. In addition, in assay [7], the TGI amounted to 51.6 µM.
Take `CCOC(=O)/C(O)=C(/C(=O)OC)c1ccc(Cl)cc1`: the TGI in [8], in assay [1], in assay [2], in assay [3], in assay [4] and in assay [5] was > 100 µM throughout. In assay [6], the TGI was > 100 µM.
Turning to `CN1CCc2[nH]nc(-c3n[nH]c4c3CN(C)CC4)c2C1`, the TGI in [9] was > 100 µM.
`CCN(CC)c1oc(N(CC)CC)c(C(=O)Nc2ccccn2)c(=O)c1C(C)=O`: the TGI in assay [1], in [2], in assay [3], in assay [5] and in [6] was > 100 µM in each case.
Turning to `CN(C)C(=O)c1ccc([N+](=O)[O-])cc1`, the TGI in assay [1], in assay [2], in assay [3], in assay [4] and in [5] was > 100 µM throughout.
With `COc1ccc(CC2(Cc3ccc(OC)cc3)CCOC2=O)cc1`, the TGI was > 100 µM in assay [1], > 100 µM in assay [2] and 26.1 µM in assay [6].
Turning to `CC(=O)O[C@H]1CCC2[C@@H]3CCC4c5nonc5CC[C@]4(C)C3CC[C@@]21C` (stereo partly specified), the TGI is > 10 µM in assay [1]; > 100 µM in [2]; > 10 µM in assay [3]; > 10 µM in assay [4]; > 100 µM in assay [5]; > 10 µM in assay [7]. The GI50 in assay [2] and in [5] was > 100 µM throughout.
For `NCCN.O=C([O-])CN1CCOCC1.[OH-].[Pt+4]`, in [9], the GI50 is > 100 µM and the TGI is > 100 µM.
`COC(=O)C(CC1=C(O)Nc2ccccc2N1)/C(=N/NC(N)=O)C(=O)Nc1ccccc1C` (stereo unspecified): the TGI in assay [1] was > 100 µM; in assay [2] it was 26.5 µM; in [3], 36.9 µM; in [4], > 100 µM; in assay [5], > 100 µM; in assay [7], > 100 µM.
For `CCc1ccccc1NC(=O)/C(N=O)=C(/C)O`, the TGI in [8], in assay [1], in [2], in [3], in [4] and in assay [5] was > 100 µM throughout. The TGI in assay [6] and in [7] was > 100 µM throughout.
Take `O=C(NC(=Nc1ccccc1)SCCSC(=Nc1ccccc1)NC(=O)c1cccs1)c1cccs1`: the TGI in assay [1], in [2], in assay [3], in assay [4] and in assay [6] was > 100 µM throughout.
